Experimental data published in patent publication US6426355B1, “Heterocyclic carboxamide-containing thiourea inhibitors of herpes viruses containing phenylenediamine group” (American Home Products, priority 1998, dated 2002).
Values after ≈ are worked out from the molar mass of the structure shown.

Key:
[1] = test system: HSV-1; test: HSV Antiviral (ELISA) assay; assay type: cell-based; settings: for IC50: Human alphaherpesvirus 1, HSV-1 in Vero cells, read-out: IC50 (ug/ml) HSV
Summary of the method: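 Vero cells in DMEM/2% FBS pretreated with compound 30 min before HSV-1 infection (MOI 0.006), then ~24 h at 37 °C. Viral gD detected by ELISA with β-galactosidase secondary and 4-methylumbelliferyl-galactoside (ex 365/em 450 nm); IC50 from fluorescence versus untreated infected cells.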

[2] = test system: VZV strain Ellen; test: VZV Antiviral (ELISA) assay; assay type: cell-based; settings: for IC50: Human alphaherpesvirus 3, VZV strain Ellen in HFF cells, read-out: IC50 (ug/ml) VZV
Summary of the method: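 Cell-based ELISA: infected/uninfected HFF mix (VZV Ellen, MOI <0.1) exposed to compound in DMEM/2% FBS for 3 days at 37° C. Anti-gpII monoclonal plus β-galactosidase-linked secondary, detected as 4-methylumbelliferone fluorescence; IC50 derived by comparing fluorescence with versus without compound.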

[3] = test system: HCMV recombinant mutant virus (RV145); test: HCMV microtiter plate assay (beta-glucuronidase reporter); assay type: cell-based, Human Cytomegalovirus; settings: for IC50: Human betaherpesvirus 5, Fibroblast, read-out: IC50 (ug/ml) HCMV
Summary of the method: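 Human foreskin fibroblasts were infected with RV145 in the presence of inhibitor. β-glucuronidase under a viral promoter served as the replication marker. At 96 h post-infection, lysates in pH 7.0 phosphate with Triton X-100/sarkosyl were assayed colorimetrically or fluorometrically, and IC50 was estimated from varying inhibitor amounts.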

Row | Compound | IC50 [1] [µg/mL] | IC50 [2] [µg/mL] | IC50 [3] [µg/mL] | IC50 (ug/ml) HSV ([1]; HSV-1 in Vero cells) [µg/mL] | IC50 (ug/ml) VZV ([2]; VZV strain Ellen in HFF cells) [µg/mL] | % inhibition 10 ug/ml VZV ([2]; at 10 ug/ml, VZV strain Ellen in HFF cells) [%] | IC50 (ug/ml) HCMV ([3]; HCMV in human foreskin fibroblasts) [µg/mL]
1 | CCCCc1nc(C(=O)Nc2ccc(NC(=S)Nc3cc(Cl)cc(Cl)c3)cc2)cs1 [Example 1136, 2-Butyl-thiazole-4-carboxylic acid {4-[3-(3,5-dichloro-phenyl)-thioureido]-phenyl}-amide] | 2.9 (≈ 6.05 µM) | 5 (≈ 10.4 µM) | 1.6 (≈ 3.34 µM) |  |  |  | 
2 | CCCCc1nc(C(=O)Nc2ccc(NC(=S)Nc3cc(C(F)(F)F)cc(C(F)(F)F)c3)cc2)cs1 [Example 1137, 2-Butyl-thiazole-4-carboxylic acid {4-[3-(3,5-bis-trifluoromethyl-phenyl)-thioureido]-phenyl}-amide] | > 10 | 3.5 (≈ 6.4 µM) | 0.6 (≈ 1.1 µM) |  |  |  | 
3 | Cc1nc(C(=O)Nc2ccc(NC(=S)Nc3cc(Cl)cc(Cl)c3)cc2)cs1 [Example 1138, 2-Methyl-thiazole-4-carboxylic acid {4-[3-(3,5-dichloro-phenyl)-thioureido]-phenyl}-amide] | > 10 | > 10 | 0.65 (≈ 1.49 µM) |  |  |  | 
4 | Cc1nc(C(=O)Nc2ccc(NC(=S)Nc3ccc(Cl)c(Cl)c3)cc2)cs1 [Example 1139, 2-Methyl-thiazole-4-carboxylic acid {4-[3-(3,4-dichloro-phenyl)-thioureido]-phenyl}-amide] | 3.7 (≈ 8.46 µM) | 6 (≈ 13.7 µM) | 1.2 (≈ 2.74 µM) |  |  |  | 
5 | Cc1nc(C(=O)Nc2ccc(NC(=S)Nc3cc(C(F)(F)F)cc(C(F)(F)F)c3)cc2)cs1 [Example 1140, 2-Methyl-thiazole-4-carboxylic acid {4-[3-(3,5-bis-trifluoromethyl-phenyl)-thioureido]-phenyl}-amide] | 3.5 (≈ 6.94 µM) | 4 (≈ 7.93 µM) | 1.6 (≈ 3.17 µM) |  |  |  | 
6 | O=C(Nc1ccc(NC(=S)Nc2ccc(Cl)c(C(F)(F)F)c2)cc1)c1csc(-c2ccccc2)n1 [Example 1141, 2-Phenyl-thiazole-4-carboxylic acid {4-[3-(4-chloro-3-trifluoromethyl-phenyl)-thioureido]-phenyl}-amide] | > 10 | > 10 | 1.9 (≈ 3.56 µM) |  |  |  | 
7 | O=C(Nc1ccc(NC(=S)Nc2cc(Cl)cc(Cl)c2)cc1)c1csc(-c2ccccc2)n1 [Example 1142, 2-Phenyl-thiazole-4-carboxylic acid {4-[3-(3,5-dichloro-phenyl)-thioureido]-phenyl}-amide] | > 10 | > 10 | 1.8 (≈ 3.6 µM) |  |  |  | 
8 | O=C(Nc1ccc(NC(=S)Nc2ccc(Cl)c(Cl)c2)cc1)c1csc(-c2ccccc2)n1 [Example 1143, 2-Phenyl-thiazole-4-carboxylic acid {4-[3-(3,4-dichloro-phenyl)-thioureido]-phenyl}-amide] | > 10 | > 10 | 7.5 (≈ 15 µM) |  |  |  | 
9 | [1,2,3]Thiadiazole-4-carboxylic acid {4-[3-(3,4,5-chloro-4-isoxazol-5-yl-phenyl)-thioureido]-phenyl}-amide [Example 990] |  |  |  | 8 | 4.5 | 99 | 0.011
